Results from patent US20130046283A1, “METHODS AND INTRAVASCULAR TREATMENT DEVICES FOR TREATMENT OF ATHEROSCLEROSIS” (Medtronic Vascular, Inc., priority 2011, published 2013).
“Also recorded” adds a separate entry of the source.

Legend:
Assay type in all cases: cell-based
Endothelin-1 = assay: qRT-PCR Endothelin-1 gene expression in SFA smooth muscle cells, drug then inflammatory cocktail; settings: quiescent SFA smooth muscle cells, FIG. 14D
Procedure: (§1) FIG. 14 depicts differential effect of paclitaxel versus the Limus family of drugs on expression of cell cycle, proliferation and ECM target genes in SFA smooth muscle cells. Quiescent SFA smooth muscle cells were treated with of Paclitaxel, Zotarolimus or Sirolimus then stimulated with inflammatory cocktail consisting of FBS, TGF Beta and 11—1 beta. Relative gene expression levels were determined by qRT-PCR for each drug treated arm as calibrated against the unstimulated baseline control for (A) BTG2, (B) KLF4, (C) PEDF, (D) Endothelin-1, (E) Thrombospondin-1, and (F) Thrombospondin-3.
(§2) In a similar manner, the expression of Thrombospondin-1 and Thrombospondin-3 is inhibited by paciltaxel but not by sirolimus and zotarolimus. Taken together the data with regards to the differential effects of commercially employed, anti-proliferative drugs, such as paciltaxel and drugs of the limus family, on the expression of SFA disease target genes can highlight/point to wards the most beneficial therapeutic mode of application and treatment.

CDKN1A = assay: qRT-PCR CDKN1A gene expression in drug-treated SFA smooth muscle cells; settings: SFA smooth muscle cells from normal donor tissue; qRT-PCR calibrated against unstimulated control; FIG. 13A
Procedure: (§3) FIG. 13 depicts effects of paclitaxel on cellular morphology, gene and protein expression. (A and B) SFA smooth muscle cells from normal donor tissue were treated with Paclitaxel, Everolimus or Sirolimus. Gene expression levels were determined by qRT-PCR for each drug arm calibrated against unstimulated control for (A) CDKN1A and (C) CTGF. (B) SMCs were exposed to Sirolimus or Paclitaxel, fixed and stained with Actin (red) and Ki67 (green). (D) SFA derived smooth muscle cells were treated with Paclitaxel, Everolimus or Sirolimus then stimulated with Colchicinne (CTGF a) or Angiotensin II (CTGF b). Protein levels were detected by western blot using antibodies against CTGF and beta actin. One representative blot of three replicates shown.
(§4) Obtaining samples from SFA arteries allowed us to generate SFA derived-smooth muscle cells and to examine the expression of genes of interest as ide12tified in the disease atherectomy samples. In particularly we investigated the transcriptional response to anti-proliferative drugs, e.g. paclitaxel and drugs from the limus family such as sirolimus, everolimus or zotarolimus. These drugs are currently employed in combination devices indicated for the treatment of coronary and peripheral disease, including drug eluting stents and drug eluting balloons. […]

CTGF [1] = assay: qRT-PCR CTGF gene expression in drug-treated SFA smooth muscle cells; settings: qRT-PCR calibrated against unstimulated control, FIG. 13C
Procedure: as §3, §4

CTGF [2] = assay: Western blot of CTGF protein in drug-treated SFA derived smooth muscle cells; settings: drug then Colchicinne or Angiotensin II stimulation, FIG. 13D
Procedure: as §3, §4

PEDF = assay: qRT-PCR PEDF gene expression in SFA smooth muscle cells, drug then inflammatory cocktail; settings: quiescent SFA smooth muscle cells, drug then FBS, TGF Beta and IL-1 beta cocktail; calibrated against unstimulated baseline; FIG. 14C
Procedure: as §1
(§5) Since the limus drugs have been known to affect the signaling via their effect on cell cycle inhibitors (CDKN1A and CDKN1 B), we next studied their effects on the pertinent proliferative disease targets identified in this study. Specifically, we looked at BTG2, KLF4 and PEDF (FIGS. 14A, 14B, and 14C, respectively).

SFA smooth muscle cells = assay: Actin and Ki67 staining of SMCs exposed to drug (cellular morphology); settings: SMCs fixed and stained with Actin and Ki67; FIG. 13B
Procedure: as §3, §4

KLF4 = assay: qRT-PCR KLF4 gene expression in SFA smooth muscle cells, drug then inflammatory cocktail; settings: quiescent SFA smooth muscle cells, drug then FBS, TGF Beta and IL-1 beta cocktail; calibrated against unstimulated baseline; FIG. 14B
Procedure: as §1, §5

Thrombospondin-1 = assay: qRT-PCR Thrombospondin-1 gene expression in SFA smooth muscle cells, drug then inflammatory cocktail; settings: quiescent SFA smooth muscle cells, FIG. 14E
Procedure: as §1, §2

BTG2 = assay: qRT-PCR BTG2 gene expression in SFA smooth muscle cells, drug then inflammatory cocktail; settings: quiescent SFA smooth muscle cells, drug then FBS, TGF Beta and IL-1 beta cocktail; calibrated against unstimulated baseline; FIG. 14A
Procedure: as §1, §5

Thrombospondin-3 = assay: qRT-PCR Thrombospondin-3 gene expression in SFA smooth muscle cells, drug then inflammatory cocktail; settings: quiescent SFA smooth muscle cells, FIG. 14F
Procedure: as §1, §2

| SMILES | expression of Endothelin-1 (Endothelin-1) | expression of Endothelin-1 (Endothelin-1; listed as paciltaxel) | CDKN1A expression (CDKN1A) | expression of CTGF (gene) (CTGF [1]) | CTGF protein levels (CTGF [2]) | expression of PEDF (PEDF) | effect on cellular cytoskeleton / morphology (SFA smooth muscle cells) | expression of KLF4 (KLF4) | expression of Thrombospondin-1 (Thrombospondin-1) | expression of Thrombospondin-1 (Thrombospondin-1; listed as paciltaxel) | expression of BTG2 (BTG2) | expression of Thrombospondin-3 (Thrombospondin-3) | expression of Thrombospondin-3 (Thrombospondin-3; listed as paciltaxel) |
| --- | --- | --- | --- | --- | --- | --- | --- | --- | --- | --- | --- | --- | --- |
| CC(=O)O[C@H]1C(=O)[C@@]2(C)[C@H]([C@H](OC(=O)c3ccccc3)[C@]3(O)C[C@H](OC(=O)[C@H](O)[C@@H](NC(=O)c4ccccc4)c4ccccc4)C(C)=C1C3(C)C)[C@]1(OC(C)=O)CO[C@@H]1C[C@@H]2O [Paclitaxel] | substantially down regulated | slightly inhibited | does not affect | substantial down regulation; also recorded: substantially down regulated | reduced | up regulated | disrupting cellular cytoskeleton | up regulated | substantially down regulated | inhibited | up regulated | substantially down regulated | inhibited |
| CO[C@H]1C[C@@H]2CC[C@@H](C)[C@@](O)(O2)C(=O)C(=O)N2CCCC[C@H]2C(=O)O[C@H]([C@H](C)C[C@@H]2CC[C@@H](OCCO)[C@H](OC)C2)CC(=O)[C@H](C)/C=C(\C)[C@@H](O)[C@@H](OC)C(=O)[C@H](C)C[C@H](C)/C=C/C=C/C=C/1C [everolimus] |  |  | up regulating |  |  |  |  |  |  |  |  |  |  |
| CO[C@H]1C[C@@H]2CC[C@@H](C)[C@@](O)(O2)C(=O)C(=O)N2CCCC[C@H]2C(=O)O[C@H]([C@H](C)C[C@@H]2CC[C@H](n3cnnn3)[C@H](OC)C2)CC(=O)[C@H](C)/C=C(\C)[C@@H](O)[C@@H](OC)C(=O)[C@H](C)C[C@H](C)/C=C/C=C/C=C/1C [zotarolimus] | substantially upregulated |  |  |  |  |  |  | induced the expression |  |  | induced the expression |  |  |
